Patent publication US20250177418A1, “NEUROACTIVE STEROIDS FOR TREATMENT OF GASTROINTESTINAL DISEASES OR CONDITIONS” (Sage Therapeutics, Inc., priority 2022, published 2025)

Assays:
[1] = system: participants with major depressive disorder (MDD); assay: Treatment-emergent adverse events (safety), study NCT04476030; assay type: in vivo, human; settings: one patient, approximately 1 hour after Compound (1) 50 mg on Day 7
Experimental: A randomized, double-blind, parallel-group, active/placebo-controlled study (NCT04476030) in participants with major depressive disorder (MDD) was conducted. The study evaluated the efficacy and safety of Compound (1) 50 mg co-initiated with standard-of-care (SOC) antidepressant therapies (ADTs) (Compound (1)+ADT) vs placebo co-initiated with SOC ADT (placebo+ADT) in adults with MDD. Patients were randomized 1:1 to once-daily, blinded Compound (1)+ADT or placebo+ADT for 14 days then continued open-label SOC ADT for 28 more days.
An AE could therefore be any unfavorable and unintended sign (including an abnormal laboratory finding), symptom or disease temporally associated with the use of a medicinal (investigational) product whether or not related to the medicinal (investigational) product. In clinical studies, an AE could include an undesirable medical condition occurring at any time, including baseline or washout periods, even if no study treatment had been administered.
A treatment emergent adverse event (TEAE) was defined as an AE with onset after the start of investigational product (IP; Compound (1) or placebo), or any worsening of a pre-existing medical condition/AE with onset after the start of IP and throughout the study. The term IP included any Sage IP, a comparator, or a placebo administered in a clinical study. […]

[2] = system: patients with major depressive disorder; settings: MDD patients, meta-analysis; cited from earlier work
[3] = cited from earlier work

Row | SMILES | Rates of gastrointestinal adverse reactions compared to placebo [2] | also measured
1 | C[C@@]1(O)CC[C@H]2[C@H](CC[C@@H]3[C@@H]2CC[C@]2(C)[C@@H](C(=O)Cn4cc(C#N)cn4)CC[C@@H]32)C1 [Compound (1), 1-(2-((3R,5R,8R,9R,10S,13S,14S,17S)-3-hydroxy-3,13-dimethylhexadecahydro-1H-cyclopenta[a]phenanthren-17-yl)-2-oxoethyl)-1H-pyrazole-4-carbonitrile] |  | Investigator-assessed relationship of serious TEAE (seizure-like phenomena) to study drug [1]: related
2 | COc1ccc2cccc(CCNC(C)=O)c2c1 [agomelatine] | higher rates | 
3 | CC(NC(C)(C)C)C(=O)c1cccc(Cl)c1 (centres unmarked) [bupropion] | higher rates | 
4 | CN(C)CCCC1(c2ccc(F)cc2)OCc2cc(C#N)ccc21 (centres unmarked) [citalopram] | higher rates | 
5 | CN(C)CC(c1ccc(O)cc1)C1(O)CCCCC1 (centres unmarked) [desvenlafaxine] | higher rates | 
6 | CNCC[C@H](Oc1cccc2ccccc12)c1cccs1 [duloxetine] | higher rates | 
7 | CN(C)CCC[C@@]1(c2ccc(F)cc2)OCc2cc(C#N)ccc21 [escitalopram] | higher rates | Tolerability on the gastrointestinal tract among antidepressants [2]: least tolerated
8 | CNCCC(Oc1ccc(C(F)(F)F)cc1)c1ccccc1 (centres unmarked) [fluoxetine] | higher rates | 
9 | COCCCC/C(=N\OCCN)c1ccc(C(F)(F)F)cc1 [fluvoxamine] | higher rates | 
10 | CCN(CC)C(=O)[C@@]1(c2ccccc2)C[C@H]1CN [levomilnacipran] | higher rates | 
11 | CN1CCN2c3ncccc3Cc3ccccc3C2C1 (centres unmarked) [mirtazapine] | higher rates | 
12 | Fc1ccc([C@@H]2CCNC[C@H]2COc2ccc3c(c2)OCO3)cc1 [paroxetine] | higher rates | 
13 | CCOc1ccccc1OC(c1ccccc1)C1CNCCO1 (centres unmarked) [reboxetine] | higher rates | 
14 | CN[C@H]1CC[C@@H](c2ccc(Cl)c(Cl)c2)c2ccccc21 [sertraline] | higher rates | Tolerability on the gastrointestinal tract among antidepressants [2]: least tolerated; Incidence of diarrhea ([3]; compared to other SSRIs and venlafaxine): higher incidence
15 | COc1ccc(C(CN(C)C)C2(O)CCCCC2)cc1 (centres unmarked) [venlafaxine] | higher rates | Rates of nausea and vomiting ([3]; compared to SSRIs and duloxetine): higher rates
16 | Cc1ccc(Sc2ccccc2N2CCNCC2)c(C)c1 [vortioxetine] | higher rates | 
